The source of these data is patent US12643887B2, “Heterocyclic derivatives with cardiomyocyte proliferation activity for treatment of heart diseases” (Tongji University, priority 2019, dated 2026).

One may read the IC50 as the concentration needed to halve the response being measured.

In assay [1] the test system is Neonatal Rat Ventricular Myocytes (NRVMs). Put plainly: Myocyte proliferation assay (EdU assay) in neonatal rat ventricular myocytes. The following applies: growth relative to blank myocyte growth without compound added; for Avg 1 uM (average myocyte proliferation): compound 1 uM; for Avg 3 uM (average myocyte proliferation): compound 3 uM; for Avg 10 uM (average myocyte proliferation): compound 10 uM. In kind it is cell-based. Here is the method:
1. Isolation of and Culture Neonatal Rat Ventricular Myocytes (NRVMs)
Ventricles from neonatal rats were separated from the atria, cut into small pieces (about 2×2 mm^2) and then dissociated in Ca2+-free HBSS containing 0.125 mg ml-1 trypsin (Gibco), 10 μg ml-1 DNase II (Sigma) and 0.1 mg ml-1 collagenase type IV (Sigma). The digestion was carried out under constant stirring at 37° C. for 5 min. The supernatant was collected with FBS (Gibco) after each digestion period. After digestion, the collected supernatant was centrifuged at 1000 g for 10 min at room temperature, and then cell pellets were resuspended in DMEM (Gibco) supplemented with 10% FBS and with 100 uM 5-bromo-2′-deoxyuridine (Sigma). The resuspended cells were passed through a cell strainer ([…], BD Falcon) and seeded onto 100-mm plastic dishes for 2 h at 37° C. in a 5% CO2 to remove fibroblasts, the supernatant was then collected and plated onto 1% gelatin (Sigma)-coated dishes. 24 h after the seeding, the medium was changed to DMEM (Gibco) containing 2% FBS (Gibco), 1% insulin-transferrin-selenium (ITS; Gibco), 1% Penicillin-Streptomycin (Gibco). After 24 hours of low serum culture, remove the medium with DMEM (Gibco) containing 6% FBS (Gibco), 1% insulin-transferrin-selenium (ITS; Gibco), 1% Penicillin-Streptomycin (Gibco), different concentrations of compounds (the compounds were pre-diluted in the medium and the drug concentration was 10 uM, 3 uM, 1 uM, fully mixed). After 36 h add Edu substrate (Invitrogen) according to the manufacturer's guidelines, and then after 12 h cell can be used.
• 2.1. Immobilization: Remove the medium and fix the cells with […] in 200 ul (whichever is covered) for 15 min and wash the cells twice with 500 ul of PBS for 5 min each time. • 2.2. Broken membrane: Add 200 ul of 0.3% Triton-X 100 (diluted in PBS) to each well, incubate for 10-15 min at room temperature (the time should not be too long), and wash the cells twice with 500 ul of PBS for 5 min each time. • 2.3. Blocking: Add 200 ul of 10% normal goat serum (diluted with 0.1% PBST) to each well, incubate for 1 h at room temperature, and wash twice with 500 ul of 0.1% PBST for 5 min each time. • 2.4. Primary antibody: dilute the primary antibody (abcam, ab8295) to blocking solution at a ratio of 1:200, add 100 ul per well, incubate for 1 h at room temperature (may be slightly longer than 2-3 h), wash the cells twice with 500 ul 0.1% PBST for 5 min each time. • 2.5. Secondary antibody: Dilute the fluorescently labeled secondary antibody (abcam, ab150117) into blocking solution at a ratio of 1:200, add 100 ul per well, incubate for 1 h at room temperature (the time should not be too long), wash the cells twice with 0.1% PBST for 5 min each time, pay attention to the whole process. Protected from light. • 2.6. Edu staining (Invitrogen C10338) • 2.6.1 Prepare Click-iT® reaction cocktail according to Table 3. It was important to add the ingredients in the order listed in the table; otherwise, the reaction would not proceed optimally. Use the Click-iT® reaction cocktail within 15 minutes of preparation.
• 2.6.2 Add 0.1 mL of Click-iT® reaction cocktail to each well containing a coverslip. Rock the plate briefly to ensure that the reaction cocktail is distributed evenly over the coverslip. • 2.6.3 Incubate the plate for 30 minutes at room temperature, protected from light. • 2.6.4 Remove the reaction cocktail, then wash the cells twice with 0.1% PBST for 5 min each time. • 2.7. DAPI staining: DAPI stain was diluted to PBS at a ratio of 1:1000, 100 ul per well, incubated for 30 min at room temperature, and the cells were washed twice with PBS for 5 min each. 3. Data Analysis
We used Molecular Devices' Image Xpress Micro Confocal for high-throughput photo and data analysis.

In the next assay the target is T1, human HIPK2 (Homo sapiens, UniProt Q9H2X6).
T1 construct: Recombinant human HIPK2 (1-640); GST (N); purchased SignalChem H04-11BG; host or cells: Sf9 insect cells
T1 sequence (Q9H2X6 1-640): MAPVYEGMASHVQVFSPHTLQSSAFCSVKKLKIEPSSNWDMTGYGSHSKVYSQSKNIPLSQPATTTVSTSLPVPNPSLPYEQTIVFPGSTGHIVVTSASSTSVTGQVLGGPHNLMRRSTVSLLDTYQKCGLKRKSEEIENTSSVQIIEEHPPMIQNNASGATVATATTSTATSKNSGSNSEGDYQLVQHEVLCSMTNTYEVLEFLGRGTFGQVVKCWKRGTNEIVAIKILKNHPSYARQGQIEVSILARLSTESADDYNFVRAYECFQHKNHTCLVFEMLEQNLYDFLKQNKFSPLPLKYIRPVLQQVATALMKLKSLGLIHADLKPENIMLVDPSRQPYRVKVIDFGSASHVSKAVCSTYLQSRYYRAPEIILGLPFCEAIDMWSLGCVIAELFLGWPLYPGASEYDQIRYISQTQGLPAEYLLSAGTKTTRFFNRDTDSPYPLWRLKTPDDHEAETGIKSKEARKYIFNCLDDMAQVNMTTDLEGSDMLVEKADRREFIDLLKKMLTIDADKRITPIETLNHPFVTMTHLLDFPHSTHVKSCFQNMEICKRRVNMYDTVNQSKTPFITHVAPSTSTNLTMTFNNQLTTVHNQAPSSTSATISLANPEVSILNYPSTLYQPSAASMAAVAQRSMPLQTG
In words: HIPK2 enzyme assay (ADP-Glo). To be noted: ADP-Glo, ATP 5 μM; read-out: HIPK2 IC50. In kind it is biochemical. Here is the method:
The ability of compounds to inhibit human HIPK2 kinase activities was determined using a commercially available ADP-Glo™ Kinase Assay kit (Promega, Cat #V9102) according to the manufacturer's protocol.
Recombinant human HIPK2 (1-640) (expressed in Sf9 insect cells with an N-terminal GST tag) was purchased from SignalChem (Cat #H04-11BG). Recombinant full length human MBP (expressed in E. Coli cells with an N-terminal GST tag) was purchased from SignalChem (Cat #M42-54G). This assay, run in a 384-well plate format, is a generic method for measuring kinase activities using an ADP-Glo Kinase Assay Kit. The basic assay procedure involves two steps: (1) Enzymatic step: inhibitors are incubated with the kinase and then ATP (included in the ADP-Glo Kinase Assay Kit) and the MBP protein are added to start the enzymatic reaction; (2) Detection step: after the kinase reaction, first ADP-Glo™ Reagent is added to terminate the kinase reaction and deplete the remaining ATP. Second, the Kinase Detection Reagent is added to simultaneously convert ADP to ATP and allow the newly synthesized ATP to be measured using a luciferase/luciferin reaction. The light generated is measured using a luminometer.
Briefly, HIPK2 (1 nM) in the enzymatic buffer solutions (40 mM Tris, pH 7.5, 20 mM MgCl2, 0.1 mg/ml BSA, 50 μM DTT) were mixed with various concentrations of inhibitors (dissolved in 100% DMSO). These solutions were incubated for 30 minutes at 25° C., and subsequently a mixture of substrate peptide and ATP was added with the final peptide and ATP concentrations at 0.05 mg/ml and 5 μM, respectively. The final reaction mixture of enzyme-substrate-ATP-compound was incubated for 90 minutes at 25° C.
Afterwards ADP-Glo™ Reagent was added and the mixture was incubated at 25° C. for 60 minutes. Then Kinase Detection Reagent was added, and the final mixture was incubated at 25° C. for 60 minutes. The luminescence signal of the final solution was measured on an Envision instrument (PerkinElmer). The percent (%) inhibition at each concentration of a compound is calculated relative to the luminescence signal in the Max and Min control wells contained within each assay plate. […] The concentrations and percent inhibition values for a test compound are plotted and the concentration of the compound required to achieve 50% inhibition (IC50) is determined with a four-parameter logistic dose response equation.
On the technique in general: In ADP-Glo the light output rises with the ADP produced.

On to `O=C1NC(Nc2ccccc2)=N/C1=C\c1ccc2scnc2c1` [Example 14, (Z)-5-(benzo[d]thiazol-5-ylmethylene)-2-(phenylamino)-3,5-dihydro-4H-imidazol-4-one], for which, in assay [1], the “Avg 1 uM (average myocyte proliferation)” value is “* (<10% growth relative to blank myocyte growth without compound added.)” and the “Avg 3 uM (average myocyte proliferation)” value was “** (10%-50%)”. Besides, the IC50 at human HIPK2 is over 10 µM.
With `O=C1NC(Nc2ccccc2)=N/C1=C\c1cncs1` [Example 15, (Z)-2-(phenylamino)-5-(thiazol-5-ylmethylene)-3,5-dihydro-4H-imidazol-4-one], in assay [1], the “Avg 1 uM (average myocyte proliferation)” value was “* (<10% growth relative to blank myocyte growth without compound added.)” and the “Avg 3 uM (average myocyte proliferation)” value is recorded as “** (10%-50%)”. Besides, the IC50 at human HIPK2 was over 10 µM.
In the same order, the values of `O=C1NC(Nc2ccccc2)=N/C1=C\c1ccc2nccnc2c1` [Example 16, (Z)-2-(phenylamino)-5-(quinoxalin-6-ylmethylene)-3,5-dihydro-4H-imidazol-4-one] are “* (<10% growth relative to blank myocyte growth without compound added.)”, “* (<10% growth relative to blank myocyte growth without compound added.)” and 1 to 10 µM.
With `CN(C1=N/C(=C\c2ccc3c(c2)OC(F)(F)O3)C(=O)N1)c1ccccc1` [Example 17, (Z)-5-((2,2-difluorobenzo[d][1,3]dioxol-5-yl)methylene)-2-(methyl(phenyl)amino)-3,5-dihydro-4H-imidazol-4-one], in assay [1], the “Avg 1 uM (average myocyte proliferation)” value is recorded as “* (<10% growth relative to blank myocyte growth without compound added.)”, the “Avg 3 uM (average myocyte proliferation)” value is recorded as “* (<10% growth relative to blank myocyte growth without compound added.)” and the “Avg 10 uM (average myocyte proliferation)” value (from here on “Avg 10 uM”) is reported as “* (<10% growth relative to blank myocyte growth without compound added.)”. The IC50 at human HIPK2 is over 10 µM.
On to `CN(C1=N/C(=C\c2ccc3c(c2)OCO3)C(=O)N1)c1cccnc1` [Example 18, (Z)-5-(benzo[d][1,3]dioxol-5-ylmethylene)-2-(methyl(pyridin-3-yl)amino)-3,5-dihydro-4H-imidazol-4-one], for which, in assay [1], the “Avg 1 uM (average myocyte proliferation)” value was “* (<10% growth relative to blank myocyte growth without compound added.)”, the “Avg 3 uM (average myocyte proliferation)” value is “* (<10% growth relative to blank myocyte growth without compound added.)” and the “Avg 10 uM” value was “** (10%-50%)”. The IC50 at human HIPK2 is over 10 µM.
On to `CN(CC1CC1)C1=N/C(=C\c2ccc3c(c2)OCCO3)C(=O)N1` [Example 19, (Z)-2-((cyclopropylmethyl)(methyl)amino)-5-((2,3-dihydrobenzo[b][1,4]dioxin-6-yl)methylene)-3,5-di hydro-4H-imidazol-4-one], for which, in assay [1], the “Avg 1 uM (average myocyte proliferation)” value is “* (<10% growth relative to blank myocyte growth without compound added.)”, the “Avg 3 uM (average myocyte proliferation)” value is on record as “* (<10% growth relative to blank myocyte growth without compound added.)” and the “Avg 10 uM” value is recorded as “* (<10% growth relative to blank myocyte growth without compound added.)”. The IC50 at human HIPK2 was over 10 µM.
Take `CN(CCN1CCOCC1)C1=N/C(=C\c2ccc3c(c2)OCO3)C(=O)N1` [Example 20, (Z)-5-(benzo[d][1,3]dioxol-5-ylmethylene)-2-(methyl(2-morpholinoethyl)amino)-3,5-dihydro-4H-imidazol-4-one]: in assay [1], the “Avg 1 uM (average myocyte proliferation)” value is “* (<10% growth relative to blank myocyte growth without compound added.)”, the “Avg 3 uM (average myocyte proliferation)” value is on record as “* (<10% growth relative to blank myocyte growth without compound added.)” and the “Avg 10 uM” value is recorded as “** (10%-50%)”. The IC50 at human HIPK2 is over 10 µM.
Take `COc1ccccc1N(C)C1=N/C(=C\c2ccc3c(c2)OCO3)C(=O)N1` [Example 21, (Z)-5-(benzo[d][1,3]dioxol-5-ylmethylene)-2-((2-methoxyphenyl)(methyl)amino)-3,5-dihydro-4H-imidazol-4-one]: in assay [1], the “Avg 1 uM (average myocyte proliferation)” value is “*** (>50%)”, the “Avg 3 uM (average myocyte proliferation)” value is “*** (>50%)” and the “Avg 10 uM” value is reported as “** (10%-50%)”. Moreover, at human HIPK2, the IC50 was over 10 µM.
In the case of `O=C1NC(N(Cc2ccccc2)c2ccccc2)=N/C1=C\c1ccc2c(c1)OCO2` [Example 22, (Z)-5-(benzo[d][1,3]dioxol-5-ylmethylene)-2-(benzyl(phenyl)amino)-3,5-dihydro-4H-imidazol-4-one], in assay [1], the “Avg 1 uM (average myocyte proliferation)” value is listed as “** (10%-50%)”, the “Avg 3 uM (average myocyte proliferation)” value is given as “** (10%-50%)” and the “Avg 10 uM” value is listed as “** (10%-50%)”. Also, the IC50 at human HIPK2 is over 10 µM.
As to `CN(Cc1ccccc1)C1=N/C(=C\c2ccc3c(c2)OCO3)C(=O)N1` [Example 23, (Z)-5-(benzo[d][1,3]dioxol-5-ylmethylene)-2-(benzyl(methyl)amino)-3,5-dihydro-4H-imidazol-4-one], in assay [1], the “Avg 1 uM (average myocyte proliferation)” value was “** (10%-50%)”, the “Avg 3 uM (average myocyte proliferation)” value is on record as “** (10%-50%)” and the “Avg 10 uM” value is on record as “** (10%-50%)”. Also, the IC50 at human HIPK2 is over 10 µM.
In the case of `CN(C1=N/C(=C\c2ccc3ncsc3c2)C(=O)N1)c1ccc(Cl)cc1` [Example 24, (Z)-5-(benzo[d]thiazol-6-ylmethylene)-2-((4-chlorophenyl)(methyl)amino)-3,5-dihydro-4H-imidazol-4-one], in assay [1], the “Avg 1 uM (average myocyte proliferation)” value is listed as “* (<10% growth relative to blank myocyte growth without compound added.)”, the “Avg 3 uM (average myocyte proliferation)” value is “* (<10% growth relative to blank myocyte growth without compound added.)” and the “Avg 10 uM” value is listed as “* (<10% growth relative to blank myocyte growth without compound added.)”. At human HIPK2, the IC50 is 0.1 to 1 µM.
